Experiments:
[1] = Cytotoxicity against human HepG2 cells assessed as reduction in cell viability; format: cell-based
Trypanosoma brucei = test: Antitrypanosomal activity against Trypanosoma brucei; format: functional, organism-based
[2] = molecular target: Rhodesain (Trypanosoma brucei rhodesiense) (UniProt Q95PM0); test: Inhibition of Trypanosoma brucei rhodesain assessed as Kinact/Ki ratio
[3] = molecular target: Rhodesain (Trypanosoma brucei rhodesiense) (UniProt Q95PM0); test: Inhibition of Trypanosoma brucei rhodesain at 10 uM measured after 1 hr relative to control
[4] = Selectivity index, ratio of CC50 for human HepG2 cells to EC50 for Trypanosoma brucei; format: toxicity; conditions: read-out: Ratio CC50/EC50

Rhodesain (Trypanosoma brucei rhodesiense), sequence (Q95PM0 1-450): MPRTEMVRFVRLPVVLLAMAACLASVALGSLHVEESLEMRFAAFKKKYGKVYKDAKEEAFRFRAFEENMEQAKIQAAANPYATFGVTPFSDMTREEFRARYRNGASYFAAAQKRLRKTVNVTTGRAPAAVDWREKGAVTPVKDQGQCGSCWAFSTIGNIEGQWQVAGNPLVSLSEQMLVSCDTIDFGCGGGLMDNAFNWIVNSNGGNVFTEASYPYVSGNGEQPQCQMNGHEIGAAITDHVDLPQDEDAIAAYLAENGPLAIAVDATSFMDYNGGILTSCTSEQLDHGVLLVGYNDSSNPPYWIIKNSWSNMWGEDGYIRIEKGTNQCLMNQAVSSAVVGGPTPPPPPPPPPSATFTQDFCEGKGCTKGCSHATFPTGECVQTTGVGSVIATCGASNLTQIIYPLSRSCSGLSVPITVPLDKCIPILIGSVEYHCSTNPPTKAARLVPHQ

SMILES | CC50 [1] | EC50 (Trypanosoma brucei) | kinact/Ki [2] | inhibition [3] | selectivity ratio [4]
Cn1cc([N+](=O)[O-])nc1C(=O)N[C@H](/C=C/S(=O)(=O)c1ccccc1)CCc1ccccc1 | 28.8 µM | 7.04 µM | 59 M⁻¹ s⁻¹ | 91.9% | 4.08
O=C(N[C@H](/C=C/S(=O)(=O)c1ccccc1)CCc1ccccc1)c1cccc2c1NCCC2 | > 160 µM | 6.3 µM | 245 M⁻¹ s⁻¹ | 100% | > 25
CCC[C@@H](/C=C/S(=O)(=O)c1ccccc1)NC(=O)c1cccc2cccnc12 | > 80 µM | 9.23 µM | 82.1 M⁻¹ s⁻¹ | 93.5% | > 8.66
O=C(Cc1ccccn1)N[C@H](/C=C/S(=O)(=O)c1ccccc1)CCc1ccccc1 | 37.9 µM | > 20 µM | – | – | –
Cc1ncn(C)c1C(=O)N[C@H](/C=C/S(=O)(=O)c1ccccc1)CCc1ccccc1 | 34.4 µM | 19.6 µM | – | – | 1.76
O=C(N[C@H](/C=C/S(=O)(=O)c1ccccc1)CCc1ccccc1)c1cccc2nccnc12 | 39.6 µM | 5.9 µM | 293 M⁻¹ s⁻¹ | 99.1% | 6.71
CC(C)C[C@@H](/C=C/S(=O)(=O)c1ccccc1)NC(=O)c1cccc2cccnc12 | 15.1 µM | 7.98 µM | – | – | 1.89
COc1cc([C@@H]2c3cc4c(cc3[C@H](O)[C@H]3COC(=O)[C@H]23)OCO4)cc(OC)c1OC [PODOFILOX] | < 0.5 µM | – | – | – | –
CCCC[C@@H](/C=C/S(=O)(=O)c1ccccc1)NC(=O)c1cccc2cccnc12 | 36.5 µM | 6.2 µM | 108 M⁻¹ s⁻¹ | 96.2% | 6.38
Cc1ccc(C(=O)Nc2ccc(S(=O)(=O)O)c3cc(S(=O)(=O)O)cc(S(=O)(=O)O)c23)cc1NC(=O)c1cccc(NC(=O)Nc2cccc(C(=O)Nc3cc(C(=O)Nc4ccc(S(=O)(=O)O)c5cc(S(=O)(=O)O)cc(S(=O)(=O)O)c45)ccc3C)c2)c1 [SURAMIN] | – | 0.004 µM | – | – | –
O=C(N[C@H](/C=C/S(=O)(=O)c1ccccc1)Cc1ccccc1)c1cccc2cccnc12 | 25.3 µM | 11.7 µM | – | – | 2.16
O=C(N[C@H](/C=C/S(=O)(=O)c1ccccc1)CCc1ccccc1)c1ccc([N+](=O)[O-])o1 | 5.17 µM | 0.11 µM | – | 78.1% | 47
O=C(N[C@H](/C=C/S(=O)(=O)c1ccccc1)CCc1ccccc1)c1cccc2cccnc12 | > 80 µM | 5.97 µM | – | 100% | > 13.4
CC1=CC(C)(C)Nc2c(C(=O)N[C@H](/C=C/S(=O)(=O)c3ccccc3)CCc3ccccc3)cccc21 | > 300 µM | 1.88 µM | – | – | > 160
C[C@H]1CC(C)(C)Nc2c(C(=O)N[C@H](/C=C/S(=O)(=O)c3ccccc3)CCc3ccccc3)cccc21 | > 300 µM | 3.02 µM | – | – | > 99.3
O=C(N[C@H](/C=C/S(=O)(=O)c1ccccc1)CCc1ccccc1)[C@@H]1CSCN1 | 77.8 µM | 6.94 µM | 161 M⁻¹ s⁻¹ | 99.3% | 11.2
O=C(N[C@H](/C=C/S(=O)(=O)c1ccccc1)CCc1ccccc1)c1ccc([N+](=O)[O-])s1 | 12.4 µM | 0.69 µM | – | 100% | 18
O=C(NC/C=C/S(=O)(=O)c1ccccc1)c1cccc2cccnc12 | 55.5 µM | 14.3 µM | – | – | 3.86
